Read-outs that look alike come from different tables or passages of the source.
Assays:
[1] = biological target: T1, Azetylcholinesterase des menschlichen Bluts (Homo sapiens, UniProt P22303); experiment: Reactivation in vitro of erythrocyte cholinesterase inhibited by organophosphorus compounds (potentiometric titration); assay type: biochemical; settings: reactivator 1.10^-4 M01/1, 25°C, pH 7,5
T1 construct: Cholinesterase des Grundgerüstes der Erythrozyten des menschlichen Bluts; from tissue; host or cells: human erythrocyte stroma (ghosts)

[2] = Content of the drugs in blood and brain after intramuscular administration (Askew method); assay type: in vivo, Ratten; settings: rat, im, Ratten; for concentration at 2 h: 2 St., read-out: Konzentration (µg/g) 2 St. (converted); for concentration at 5 min: read-out: Konzentration (µg/g) 5 min; for concentration at 20 min: read-out: Konzentration (µg/g) 20 min (converted); for concentration at 0.5 h: 30 min, read-out: Konzentration (µg/g) 30 min; for concentration at 1 h: I St., read-out: Konzentration (µg/g) I St.; for concentration at 10 min: IO min, read-out: Konzentration (µg/g) IO min (converted)
Protocol: Mit Hilfe der Methode von Askew (1956) wurde in der Dynamik der Gehalt des erfindungsgemäßen Arzneimittels im Blut und Gehirn der Tiere untersucht. Die Untersuchungen wurden im Vergleich zum bekannten Präparak TMB-4 vorgenommen. Die Geschwindigkeit des Eindringens beider Präparate ins Blut und deren Konzentration wurden bei der-intramuskulären Einführung in Dosen von 20 ..und 50 mg/kg und der Gehirnspiegel - in einer Dosis von 50 mg/kg bestimmt. […]
Es wurde festgestellt, daß die Präparate schnell (nach 5 min) von der Einführungsstelle ins Blut eindringen, dabei wurde unabhängig von der Prüfdosis der Präparate deren Maximalgehalt im Blut 20 min nach der Einführung beobachtet, zwar erhöhte die Vergrößerung der Dosis der Präparate bis 50 mg/kg wesentlich deren Konzentrationsniveau während der ganzen Beobachtungsfrist.
Die im Vergleich zu TMB-4 durchgeführten Untersuchungen haben ergeben, dass während der ersten Stunde der Blutgehalt und das Anwachsen der Konzentrationen beider Präparate gleich waren. […] Die Untersuchungsergebnisse sind in der Tabelle 3 angeführt.
Nach den Ergebnissen der durchgeführten Untersuchungen wurde festgestellt, dass das erfindungsgemässe Arz- neimittel bei der intramuskulären Einführung schnell ins Blut und Gehirn des Tieres eindringt und zum Unterschied von TMB-4 eine längere Zeit im 3lutstrom zirkuliert und von 5 min an bis 4 Stunden Beobachtung im Gehirn in bedeutend grösseren Mengen enthalten ist.

[3] = blood, Blut, Dosis 20 mg/kg intramuskulär
[4] = blood, Blut, Dosis 50 mg/kg intramuskulär
[5] = brain, Gehirn, Dosis 50 mg/kg intramuskulär

T1 sequence (P22303 other isoform, or with tags, fused parts or gaps): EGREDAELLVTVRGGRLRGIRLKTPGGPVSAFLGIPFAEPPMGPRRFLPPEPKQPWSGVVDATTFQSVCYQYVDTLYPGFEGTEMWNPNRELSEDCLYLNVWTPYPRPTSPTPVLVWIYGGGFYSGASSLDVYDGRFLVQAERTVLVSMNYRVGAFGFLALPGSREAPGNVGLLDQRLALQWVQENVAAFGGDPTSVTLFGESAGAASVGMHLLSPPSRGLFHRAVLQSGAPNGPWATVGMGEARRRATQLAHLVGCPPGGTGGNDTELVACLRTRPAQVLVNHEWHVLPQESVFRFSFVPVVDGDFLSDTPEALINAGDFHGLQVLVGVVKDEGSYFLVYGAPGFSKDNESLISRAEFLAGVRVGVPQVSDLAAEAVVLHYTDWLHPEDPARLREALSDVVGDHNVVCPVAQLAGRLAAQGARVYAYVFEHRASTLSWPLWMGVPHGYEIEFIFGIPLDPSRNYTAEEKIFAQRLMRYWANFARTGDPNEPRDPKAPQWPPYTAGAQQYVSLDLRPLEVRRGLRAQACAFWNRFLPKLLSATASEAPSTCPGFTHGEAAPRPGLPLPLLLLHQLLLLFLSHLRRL

Structure (SMILES): ON=Cc1cc[n+](CCC[n+]2ccc(C=NO)cc2)cc1 [TMB-4, Trimethylen-1,3-bis-(4-oxyiminomethylpyridinium)bromid, reference compound]
- activity at 100 µM ([1]; 0.5 h, pH 7, inhibited with O,O-Dimethyl-(2,2,2-trichlor-1-oxyäthyl) phosphonat, 0,5 h, read-out: Aktivität der Azetylcholinesterase in % (Reaktivationszeit in Stunden) 0,5): 40%
- activity at 100 µM ([1]; 0.5 h, pH 7, inhibited with O,O-Dimethyl-S-(1,2-dikarbäthoxyäthyl)-dithiophosphat, 0,5 h, read-out: Aktivität der Azetylcholinesterase in % (Reaktivationszeit in Stunden) 0,5): 27.4%
- activity at 100 µM ([1]; 1 h, pH 7, inhibited with O,O-Dimethyl-(2,2,2-trichlor-1-oxyäthyl) phosphonat, 1 h, read-out: Aktivität der Azetylcholinesterase in % (Reaktivationszeit in Stunden) 1): 51%
- activity at 100 µM ([1]; 1 h, pH 7, inhibited with O,O-Dimethyl-S-(1,2-dikarbäthoxyäthyl)-dithiophosphat, 1 h, read-out: Aktivität der Azetylcholinesterase in % (Reaktivationszeit in Stunden) 1): 43%
- activity at 100 µM ([1]; 2 h, pH 7, inhibited with O,O-Dimethyl-(2,2,2-trichlor-1-oxyäthyl) phosphonat, 2 h, read-out: Aktivität der Azetylcholinesterase in % (Reaktivationszeit in Stunden) 2): 64.2%
- activity at 100 µM ([1]; 2 h, pH 7, inhibited with O,O-Dimethyl-S-(1,2-dikarbäthoxyäthyl)-dithiophosphat, 2 h, read-out: Aktivität der Azetylcholinesterase in % (Reaktivationszeit in Stunden) 2): 52.9%
- concentration at 2 h [2, 3]: 0.41 µg/g
- concentration at 5 min [2, 3]: 3.6 µg/g
- concentration at 20 min [2, 3]: 4.85 µg/g
- concentration at 0.5 h [2, 3]: 4.35 µg/g
- concentration at 1 h [2, 3]: 2.75 µg/g
- concentration at 10 min [2, 3]: 4.42 µg/g
- concentration at 2 h [2, 4]: 2.42 µg/g
- concentration at 3 h ([2]; blood, Blut, Dosis 50 mg/kg intramuskulär, 3 St., read-out: Konzentration (µg/g) 3 St.): 1.95 µg/g
- concentration at 5 min [2, 4]: 16.6 µg/g
- concentration at 20 min [2, 4]: 18.4 µg/g
- concentration at 0.5 h [2, 4]: 15.1 µg/g
- concentration at 1 h [2, 4]: 11.5 µg/g
- concentration at 10 min [2, 4]: 21.1 µg/g
- concentration at 2 h [2, 5]: 0.34 µg/g
- concentration at 5 min [2, 5]: 0.86 µg/g
- concentration at 20 min [2, 5]: 2.32 µg/g
- concentration at 0.5 h [2, 5]: 2.28 µg/g
- concentration at 1 h [2, 5]: 1.5 µg/g
- concentration at 10 min [2, 5]: 0.98 µg/g

— patent EP0364584A1, “ANTIDOTE FOR ORGANIC PHOSPHORUS COMPOUND POISONING” (priority 1988, dated 1989)
